Experimental findings from publication PMC10302231, “Enhancing Cell Penetration Efficiency of Cyclic Oligoarginines Using Rigid Scaffolds” (Pharmaceutics, 2023) are described below.

Data set [1] deals with EBC-1 human lung squamous cancer cells. In words: Cellular uptake (internalization) of Cf-labelled peptides by flow cytometry. The data set is classed as cell-based. Particulars: 90 min; for internalization compared with octaarginine (in words) / efficacy (internalization) of tetra- versus hexaarginine bicyclic derivative / cellular uptake compared with linear peptide Acyl-Met-(Arg)6-Met-(Gly)4-Lys(Cf): EBC-1 cells, 1, 5, 10 µM; for internalization relative to octaarginine (Cf-Arg8): Cf-labelled peptides at 1, 5, 10 µM, trypsin treatment, flow cytometry fluorescence intensity, mean ± SD. Here is the method: The internalization study of fluorophore-labeled peptides was performed on 24-well plates with 10^5 EBC-1 human lung squamous cancer cells (CRL-5889TM) per well. After 24 h incubation at 37 °C, the cells were treated with a serum-free medium as a negative control and with peptides in different concentrations (1, 5, 10 μM). After the incubation, 100 μL trypsin (0.25%) was used for 5–10 min to remove the excess peptides from the membranes and to detach the cells from the plates. By adding 800 µL of HPMI buffer (glucose, NaHCO3, NaCl, HEPES, KCl, MgCl2, CaCl2, Na2HPO4 × 2 H2O) containing 10% fetal bovine serum (FBS), the trypsin activity was stopped, and the cells were transferred to tubes for measurement. The cells were centrifuged at 216× g at 4 °C, and the supernatant was disposed of. The resuspended cells (in 250 μL HPMI) were used to measure their fluorescence intensity by flow cytometer (BDLSR II, BD Bioscience, San Jose, CA, USA). Data were analyzed with FACSDiVa 5.0 software (BD Bioscience, San Jose, CA, USA).
The internalization of peptides was measured by flow cytometry on EBC-1 cells. The carboxyfluorescein-labeled peptides were studied at 1, 5, and 10 μM concentrations. The cells were treated for 90 min at 37 °C.
For orientation: In flow cytometry, cells or beads pass a laser one at a time.

A further data set deals with EBC-1 cells. In words: Cellular uptake after pretreatment with endocytosis inhibitors, flow cytometry. As to conditions: peptide 5 μM 90 min 37 °C; for effect of CPZ (clathrin-mediated endocytosis inhibitor) on cellular uptake: CPZ 30 μM pretreatment 30 min. The data set is classed as cell-based, human. As to the method: In order to study the effect of inhibitors, the peptide conjugates were administered at 5 μM when the cells were pretreated by the inhibitors for 30 min. The cells were then kept at 37 °C for 90 min. Macropinocytosis was inhibited using 5-(N-ethyl-N-isopropyl)amiloride (EIPA), clathrin-mediated endocytosis with chlorpromazine (CPZ), colchicine (Col) to assess the role of microtubules, and methyl-β-cyclodextrin (CyD) for the inhibition of caveolae/lipid-raft-mediated endocytosis.
The CPPs can use several pathways to enter the cell. The dependence of the cellular uptake was measured for each Dabcyl-containing cyclic BBMB peptide using different inhibitors (Figure 7). The 5-(N-ethyl-N-isopropyl)amiloride (EIPA) inhibits macropinocytosis, chlorpromazine (CPZ) inhibits clathrin-mediated endocytosis, and colchicine (COL) was used to inhibit microtubule formation. Finally, methyl-beta-cyclodextrin (CyD) was used to inhibit caveolae-mediated endocytosis.
Figure 7 Effect of endocytosis inhibitors on the cellular uptake of peptides. Before the treatment with the peptide conjugates (5 μM) for 90 min, the EBC-1 cells were pretreated with inhibitors EIPA (50 μM), CPZ (30 μM), CyD (5 mM), and COL (10 mM) for 30 min. Significant difference from the control was measured using Student’s t-test (* p < 0.05). Data represent the mean ± standard deviation (SD).

Data set [2] is described as follows: Stability measurement in 25% human plasma. Particulars: 25% human plasma (sodium citrate), 37 °C, aliquots at 0, 1 and 24 h, RP-HPLC; preliminary experiment. It is filed as in vitro ADME. As to the method: The analysis was carried out based on the details described in Yuchen Hu et al.. The linear (Dabcyl-Met-(Arg)6-Met-(Gly)4-Lys(Cf)) and cyclic (Dabcyl-Cys-(Arg)6-Cys-(Gly)4-Lys(Cf) para BBMB) peptides were incubated with 25% human plasma at 37 °C. An aliquot of the peptide; human plasma mixture was taken at time points 0, 1, and 24 h. The samples were analyzed by RP-HPLC.
The molecular weight of peptides and conjugates was determined with ESI-MS using Bruker Amazon SL (Germany). The samples were dissolved in water-acetonitrile solution (50:50) with 0.1% formic acid. The samples were directly injected with a syringe pump.
Parameters: capillary voltage: 4 kV, nebulizer gas: 10 psi, dry gas: 4 L/min, heated capillary temperature: 250 °C.
EBC-1 human lung squamous cancer cells (CRL-5889TM) were used for the in vitro analysis. These cells were a generous gift of Prof. […]
Analytical RP-HPLC was performed on Exformma (Exformma Technology (ASIA) Co., Ltd, Hong Kong, China) HPLC system. […] Linear gradient elution (0 min 0% B; 2 min 0% B; 22 min 90% B) was used with eluent A (0.1% TFA in water) and eluent B (0.1% TFA in acetonitrile-water (80:20, v/v)) at 1mL/min flowrate, the peaks were detected at λ= 220 nm for both analytical and preparative RP-HPLC. […]
Samples were taken in 0, 1 and 24 hour time periods and measured with analytical HPLC. […]

Where a SMILES comes first, the peptide text is derived from it. Bridges are numbered along the chain shown (N, C = ends). The star is where a group is joined. 5FAM = O=C1OC2(c3ccc(O)cc3Oc3cc(O)ccc32)c2ccc(C(=O)*)cc21

As for “Dabcyl-Cys-(Arg)4-Cys-(Arg)4-Cys-Lys(Cf) TBMB (bicyclic or more) [Dabcyl bicyclic octaarginine peptide on TBMB scaffold]”, the “internalization compared with octaarginine (in words)” value in data set [1] (37 °C, flow cytometry) was “better internalization”. For the same molecule, the “internalization relative to octaarginine (Cf-Arg8)” value in data set [1] (EBC-1 cells, 37 °C) is 3 fold.

As for “Dabcyl-Cys((Arg)6-Cys)-(Gly)4-Lys(Cf) (disulfide) [Dabcyl cyclic peptide with disulfide bond, Cf-labelled]”, the “internalization compared with octaarginine (in words)” value in data set [1] (37 °C, flow cytometry) is on record as “still better”. Moreover, the “internalization relative to octaarginine (Cf-Arg8)” value in data set [1] (EBC-1 cells, 37 °C) is 1.5–2 fold.

For the molecule “Dabcyl-Cys-(Arg)6-Cys-(Gly)4-Lys(Cf) para BBMB (sidechain bridge or staple) [Dabcyl cyclic peptide, para BBMB, hexaarginine in the cycle]”, the “effect of CPZ (clathrin-mediated endocytosis inhibitor) on cellular uptake” value in the data set with EBC-1 cells was “inhibits”. Moreover, the “stability in 25% human plasma” value in data set [2] is “stable”. Further, the “toxicity in the uptake experiment” value in data set [1] (EBC-1 cells, 10 µM, 37 °C) was “showed toxicity”. Also, in data set [1] (EBC-1 cells, 37 °C), the “internalization relative to octaarginine (Cf-Arg8)” value was found to be 5 fold.

Turning to “Dabcyl-Cys-(Gly)4-Cys-(Arg)6-Lys(Cf) orto BBMB (sidechain bridge or staple) [Dabcyl cyclic peptide, thioether bonds to orto BBMB, hexaarginine at C-terminus]”, the “effect of EIPA (macropinocytosis inhibitor) on cellular uptake” value with EBC-1 cells (EIPA 50 μM pretreatment 30 min, Student's t-test p < 0.05) is recorded as “did not have an effect”.

On to “Dabcyl-(Arg)6-Cys-(Gly)4-Cys-Lys(Cf) para BBMB (sidechain bridge or staple) [Dabcyl cyclic peptide, para BBMB, hexaarginine at N-terminus]”, for which, in the data set with EBC-1 cells, the “effect of CPZ (clathrin-mediated endocytosis inhibitor) on cellular uptake” value is reported as “inhibits”.

In the case of “Acyl-Cys-(Arg)2-Cys-(Arg)2-Cys-Lys(Cf) TBMB (bicyclic or more) [acylated bicyclic tetraarginine peptide on TBMB scaffold]”, in data set [1] (flow cytometry), the “efficacy (internalization) of tetra- versus hexaarginine bicyclic derivative” value is “no difference”.

With `CC(=O)N[C@H]1CSSC[C@@H](C(=O)NCC(=O)NCC(=O)NCC(=O)NCC(=O)N[C@@H](CCCCNC(=O)c2ccc3c(c2)C(=O)OC32c3ccc(O)cc3Oc3cc(O)ccc32)C(N)=O)NC(=O)[C@H](CCCNC(=N)N)NC(=O)[C@H](CCCNC(=N)N)NC(=O)[C@H](CCCNC(=N)N)NC(=O)[C@H](CCCNC(=N)N)NC(=O)[C@H](CCCNC(=N)N)NC(=O)[C@H](CCCNC(=N)N)NC1=O` [Acyl-Cys((Arg)6-Cys)-(Gly)4-Lys(Cf)] (Ac-CRRRRRRCGGGGK(5FAM)-NH2; disulfide 1-8), the “efficiency of cellular uptake compared with octaarginine at 5 µM” value in data set [1] (EBC-1 cells, 5 µM, 37 °C, flow cytometry) is “the same”. Further, the “efficiency of cellular uptake compared with octaarginine at 10 µM” value in data set [1] (EBC-1 cells, 10 µM, 37 °C, flow cytometry) is listed as “almost half”. For the same molecule, the “cellular uptake compared with linear peptide Acyl-Met-(Arg)6-Met-(Gly)4-Lys(Cf)” value is on record as “better cellular uptake” in data set [1] (37 °C, flow cytometry) and “did increase the internalization” in data set [1] (37 °C, flow cytometry, listed as Acyl-Cys-(Arg)6-Cys-(Gly)4-Lys(Cf)).

Turning to “Dabcyl-(Arg)6-Cys-(Gly)4-Cys-Lys(Cf) orto BBMB (sidechain bridge or staple) [Dabcyl cyclic peptide, orto BBMB, hexaarginine at N-terminus]”, in the data set on EBC-1 cells, the “effect of CPZ (clathrin-mediated endocytosis inhibitor) on cellular uptake” value was “inhibits”.

Take “Acyl-Cys-(Arg)3-Cys-(Arg)3-Cys-Lys(Cf) TBMB (bicyclic or more) [acylated bicyclic hexaarginine peptide on TBMB scaffold]”: the “efficacy (internalization) of tetra- versus hexaarginine bicyclic derivative” value in data set [1] (flow cytometry) is “no difference”.

For the molecule “Dabcyl-Cys-(Arg)6-Cys-(Gly)4-Lys(Cf) orto BBMB (sidechain bridge or staple) [Dabcyl cyclic peptide, orto BBMB, hexaarginine in the cycle]”, in the data set on EBC-1 cells, the “effect of CPZ (clathrin-mediated endocytosis inhibitor) on cellular uptake” value is reported as “inhibits”. In data set [1] (EBC-1 cells, 37 °C), the “internalization relative to octaarginine (Cf-Arg8)” value is 5 fold.
